In the supplement of paper PMC10307832:

How the values were obtained:
Assay in all cases: relative viability (nuclei count vs DMSO), 5 days (fraction); higher = more cells survive
[1] = tested on: HCC-827
Method in brief: (§1)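 Relative viability was taken as the ratio of nuclei in treated wells to nuclei in vehicle wells. Lung cancer cell lines in 1536-well plates received compounds by pin tool one day after seeding, either one drug alone or a fixed anchor-drug dose plus five library-drug doses (not always all listed) in √10 steps. Nuclei were counted on 4× images after 5 days of treatment, and values are medians of duplicate plates.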

[2] = tested on: HCC-366
Method in brief: as §1

[3] = tested on: A-427
Method in brief: as §1

[4] = tested on: SW 1573
Method in brief: as §1

[5] = tested on: NCI-H1734
Method in brief: as §1

[6] = tested on: SK-LU-1
Method in brief: as §1

[7] = tested on: LC-2-ad
Method in brief: as §1

[8] = tested on: NCI-H2347
Method in brief: as §1

[9] = tested on: NCI-H1975
Method in brief: as §1

[10] = tested on: NCI-H1993
Method in brief: as §1

[11] = tested on: SK-MES-1
Method in brief: as §1

[12] = tested on: NCI-H1355
Method in brief: as §1

[13] = tested on: NCI-H1915
Method in brief: as §1

[14] = tested on: NCI-H2228
Method in brief: as §1

[15] = tested on: NCI-H1792
Method in brief: as §1

[16] = tested on: NCI-H2170
Method in brief: as §1

[17] = tested on: RERF-LC-KJ
Method in brief: as §1

[18] = tested on: LCLC-103H
Method in brief: as §1

[19] = tested on: NCI-H23
Method in brief: as §1

[20] = tested on: NCI-H650
Method in brief: as §1

[21] = tested on: NCI-H1755
Method in brief: as §1

[22] = tested on: UMC-11
Method in brief: as §1

[23] = tested on: NCI-H2342
Method in brief: as §1

CCNC(=O)c1noc(-c2cc(C(C)C)c(O)cc2O)c1-c1ccc(CN2CCOCC2)cc1 [Luminespib] + Nc1nc2[nH]cc(CCc3ccc(C(=O)N[C@@H](CCC(=O)O)C(=O)O)cc3)c2c(=O)[nH]1 [Pemetrexed] (partner 0.2 µM)
relative viability ([1]; first compound 0.002 µM): 0.22
relative viability ([1]; first compound 0.006325 µM): 0.27
relative viability ([1]; first compound 0.02 µM): 0.236
relative viability ([1]; first compound 0.06325 µM): 0.159
relative viability ([1]; first compound 0.2 µM): 0.158
relative viability ([2]; first compound 0.002 µM): 0.169
relative viability ([2]; first compound 0.006325 µM): 0.156
relative viability ([2]; first compound 0.02 µM): 0.366
relative viability ([2]; first compound 0.06325 µM): 0.0354
relative viability ([2]; first compound 0.2 µM): 0.0333
relative viability ([3]; first compound 0.002 µM): 0.958
relative viability ([3]; first compound 0.006325 µM): 0.25
relative viability ([3]; first compound 0.02 µM): 0.812
relative viability ([3]; first compound 0.06325 µM): 0.495
relative viability ([3]; first compound 0.2 µM): 0.256
relative viability ([4]; first compound 0.002 µM): 0.818
relative viability ([4]; first compound 0.006325 µM): 0.898
relative viability ([4]; first compound 0.02 µM): 0.189
relative viability ([4]; first compound 0.06325 µM): 0.0968
relative viability ([4]; first compound 0.2 µM): 0.0903
relative viability ([5]; first compound 0.002 µM): 0.475
relative viability ([5]; first compound 0.006325 µM): 0.406
relative viability ([5]; first compound 0.02 µM): 0.428
relative viability ([5]; first compound 0.06325 µM): 0.159
relative viability ([5]; first compound 0.2 µM): 0.143
relative viability ([6]; first compound 0.002 µM): 1.01
relative viability ([6]; first compound 0.006325 µM): 0.779
relative viability ([6]; first compound 0.02 µM): 0.825
relative viability ([6]; first compound 0.06325 µM): 0.244
relative viability ([6]; first compound 0.2 µM): 0.206
relative viability ([7]; first compound 0.002 µM): 0.251
relative viability ([7]; first compound 0.006325 µM): 0.298
relative viability ([7]; first compound 0.02 µM): 0.26
relative viability ([7]; first compound 0.06325 µM): 0.213
relative viability ([7]; first compound 0.2 µM): 0.205
relative viability ([8]; first compound 0.002 µM): 0.402
relative viability ([8]; first compound 0.006325 µM): 0.404
relative viability ([8]; first compound 0.02 µM): 0.426
relative viability ([8]; first compound 0.06325 µM): 0.42
relative viability ([8]; first compound 0.2 µM): 0.317
relative viability ([9]; first compound 0.002 µM): 0.315
relative viability ([9]; first compound 0.006325 µM): 0.307
relative viability ([9]; first compound 0.02 µM): 0.34
relative viability ([9]; first compound 0.06325 µM): 0.137
relative viability ([9]; first compound 0.2 µM): 0.153
relative viability ([10]; first compound 0.002 µM): 0.566
relative viability ([10]; first compound 0.006325 µM): 0.577
relative viability ([10]; first compound 0.02 µM): 0.557
relative viability ([10]; first compound 0.06325 µM): 0.284
relative viability ([10]; first compound 0.2 µM): 0.367
relative viability ([11]; first compound 0.002 µM): 0.962
relative viability ([11]; first compound 0.006325 µM): 0.877
relative viability ([11]; first compound 0.02 µM): 0.517
relative viability ([11]; first compound 0.06325 µM): 0.153
relative viability ([11]; first compound 0.2 µM): 0.177
relative viability ([12]; first compound 0.002 µM): 1.12
relative viability ([12]; first compound 0.006325 µM): 1.02
relative viability ([12]; first compound 0.02 µM): 0.627
relative viability ([12]; first compound 0.06325 µM): 0.895
relative viability ([12]; first compound 0.2 µM): 0.14
relative viability ([13]; first compound 0.002 µM): 0.479
relative viability ([13]; first compound 0.006325 µM): 0.482
relative viability ([13]; first compound 0.02 µM): 0.442
relative viability ([13]; first compound 0.06325 µM): 0.312
relative viability ([13]; first compound 0.2 µM): 0.0621
relative viability ([14]; first compound 0.002 µM): 0.346
relative viability ([14]; first compound 0.006325 µM): 0.405
relative viability ([14]; first compound 0.02 µM): 0.257
relative viability ([14]; first compound 0.06325 µM): 0.079
relative viability ([14]; first compound 0.2 µM): 0.136
relative viability ([15]; first compound 0.002 µM): 0.816
relative viability ([15]; first compound 0.006325 µM): 0.615
relative viability ([15]; first compound 0.02 µM): 0.117
relative viability ([15]; first compound 0.06325 µM): 0.0474
relative viability ([15]; first compound 0.2 µM): 0.0496
relative viability ([16]; first compound 0.002 µM): 0.291
relative viability ([16]; first compound 0.006325 µM): 0.267
relative viability ([16]; first compound 0.06325 µM): 0.219
relative viability ([16]; first compound 0.2 µM): 0.141
relative viability ([17]; first compound 0.002 µM): 0.474
relative viability ([17]; first compound 0.006325 µM): 0.449
relative viability ([17]; first compound 0.02 µM): 0.462
relative viability ([17]; first compound 0.06325 µM): 0.287
relative viability ([17]; first compound 0.2 µM): 0.219
relative viability ([18]; first compound 0.002 µM): 0.441
relative viability ([18]; first compound 0.006325 µM): 0.445
relative viability ([18]; first compound 0.02 µM): 0.535
relative viability ([18]; first compound 0.06325 µM): 0.486
relative viability ([18]; first compound 0.2 µM): 0.472
relative viability ([19]; first compound 0.002 µM): 0.743
relative viability ([19]; first compound 0.006325 µM): 0.655
relative viability ([19]; first compound 0.02 µM): 0.391
relative viability ([19]; first compound 0.06325 µM): 0.139
relative viability ([19]; first compound 0.2 µM): 0.14
relative viability ([20]; first compound 0.002 µM): 0.925
relative viability ([20]; first compound 0.006325 µM): 0.983
relative viability ([20]; first compound 0.02 µM): 0.625
relative viability ([20]; first compound 0.06325 µM): 0.257
relative viability ([20]; first compound 0.2 µM): 0.113
relative viability ([21]; first compound 0.002 µM): 0.415
relative viability ([21]; first compound 0.006325 µM): 0.424
relative viability ([21]; first compound 0.02 µM): 0.415
relative viability ([21]; first compound 0.06325 µM): 0.264
relative viability ([21]; first compound 0.2 µM): 0.2
relative viability ([22]; first compound 0.002 µM): 0.737
relative viability ([22]; first compound 0.006325 µM): 0.843
relative viability ([22]; first compound 0.02 µM): 0.762
relative viability ([22]; first compound 0.06325 µM): 0.322
relative viability ([22]; first compound 0.2 µM): 0.161
relative viability ([23]; first compound 0.002 µM): 0.776
relative viability ([23]; first compound 0.006325 µM): 0.755
relative viability ([23]; first compound 0.02 µM): 0.548
relative viability ([23]; first compound 0.06325 µM): 0.749
relative viability ([23]; first compound 0.2 µM): 0.454
